The test addresses IMPDH II enzyme (Homo sapiens, UniProt P12268). Description: assay against the IMPDH II enzyme. It is filed as biochemical. An excerpt: The present invention enables an efficient and effective production of 1,2,4-triazole-3,5-diamine and/or 1,3,5-triazine-2,4-diamine derivatives, which are useful as pharmaceutical agents and/or as components of pharmaceutical agents, particularly inhibitors of IMPDH, anti-hypertensive agents, and neurokinin receptor antagonists, from readily-available starting compounds. This process provides a convenient synthesis of the target compound from a substituted isothiocyanate, hydrogencyanamide salt, a substituted hydrazine and/or a substituted amidine in moderate to good yield. […] Additionally, tri-nitrogen containing heteroaryl-diamine derivatives of formula (I), 1,2,4-triazole-3,5-diamines of formula (A) and/or (B) and 1,3,5-triazine-2,4-diamines of formula (C) may be readily coupled to a pharmacological core component to provide pharmaceutically active agents, such as, for examples, the compounds described in WO 00/25780, Dunstan et al., Tetrahedron Lett., Vol. 39, (1998), at pp. 7983-7986, U.S. Pat. No. 6,436,928, U.S. patent application No. 20020038030, U.S. Pat. No. 6,172,077 B1, U.S. Pat. No. 5,232,938, U.S. Pat. No. 4,569,933, WO 01/74806A1, WO 01/56987 A1, and EP 1107962 A1, incorporated herein by reference.

The term IC50 denotes the concentration that inhibits the measured activity by half. A lower IC50 goes with greater potency in that assay. `COc1cc(Nc2nc(N)n(-c3ccccc3)n2)ccc1-c1cnco1` [Example 13] gave an IC50 of 0.15 µM.
